Reference: US6649647B1, “Trioxane derivatives” (priority 1998, dated 2003)

What was measured:
Format in all cases: cell-based
[1] = tested on: Rat 6 subclone of the immortalized F2408 embryo cell line (R6); assay: Screening for cytotoxicity, cell count by Coulter Counter, R6 cells; conditions: for LD50 (Day 3) R6: day 3 after addition; for LD50 (Day 6) R6: day 6 after addition
Method: (§1) Compounds of the invention were screened against Rat 6 subclone of the immortalized F2408 embryo cell line, and Rat 6 (R6T24) cells transfected and transformed by a c-H-ras oncogene. The screening involved placing the R6 and R6T24 cell lines plated at 10^3 cells per well into a 12-well microtiter culture plate for 24 hours. The compounds were added at final concentrations from 0.1-100 μM, and cells were trypsized and counted by Coulter Counter at day 3 and day 6 after the addition. Untreated cells were assigned a survival value of 100%.

[2] = tested on: Rat 6 (R6T24) cells transfected and transformed by a c-H-ras oncogene; assay: Screening for cytotoxicity, cell count by Coulter Counter, R6T24 cells; conditions: R6T24 cell line; for LD50 (Day 3) R6T24: day 3 after addition; for LD50 (Day 6) R6T24: day 6 after addition
Method: as §1

[3] = tested on: DNA within the cell; assay: DNA comet assay; conditions: cells after 3 or 6 day treatment
Excerpt: In this technique, cells are embedded in agarose gel on a frosted slide after 3 or 6 day treatment, the cells are then lysed and submitted to electrophoresis. The DNA was stained after electrophoresis by ethidium bromide and images of the DNA “comets” were obtained by using an image analysis software package.

[4] = tested on: human colon cancer cell line SW 480; assay: Growth inhibition assay (MTT), SW 480; conditions: Table VI, 6 days incubation
Method: (§2) As another example of evaluation of cytotoxicity, cancer cell lines were also used for a growth inhibition assay. The human colon cancer cell lines SW 480 and HT 29 and the murine melanoma cell line B16F10 were used. […] After confluent growth, the cells were trypsinated and resuspended in RPMI plus 10% FCS to a cell concentration of 50000 cells per ml in case of colon cancer cell lines and 20000 in case of B16F10. 100 μl of this cell suspension were transferred in each well of a 96 well microtiter plate and incubated for 1 day at 37° C. in a CO2-incubator. Subsequently, further 100 μl RPMI medium and 1 μl of a DMSO solution, containing the artemisinin derivatives were added. The growth inhibition was estimated after 6 days incubation at 36° C. using the MTT assay.
(§3) 25 μl MTT solution (3-(4,5-dimethylthiazol-2-yl)-2,5-diphenyltetrazolium-bromid) of a starting concentration of 5 mg/ml H2O were added and incubated at 37° C. for 5 h. Subsequently, 100 μl iso-propanol per well were added. After 15 min incubation 100 μl H2O were added. After 30 min shaking, the extinction was measured at 595 nm using a ELISA-Multiplate Reader.

[5] = tested on: human colon cancer cell line HT 29; assay: Growth inhibition assay (MTT), HT 29; conditions: Table VI, 6 days incubation
Method: as §2, §3

[6] = tested on: murine melanoma cell line B16F10; assay: Growth inhibition assay (MTT), B16F10; conditions: Table VI, 6 days incubation
Method: as §2, §3

Molecule | LD50 (Day 3) R6 ([1]; Table V) [µM] | LD50 (Day 6) R6 ([1]; Table V) [µM] | LD50 (Day 3) R6T24 ([2]; Table V) [µM] | LD50 (Day 6) R6T24 ([2]; Table V) [µM] | DNA damage in the DNA comet assay [3] | LD50 (Day 3) R6 ([1]; Table VA) [µM] | LD50 (Day 6) R6 ([1]; Table VA) [µM] | LD50 (Day 3) R6T24 ([2]; Table VA) [µM] | LD50 (Day 6) R6T24 ([2]; Table VA) [µM] | LD50 SW 480 [4] [nM] | LD50 HT 29 [5] [nM] | LD50 B16F18 [6] [nM] | binding to DNA (DNA comet assay technique) [3]
10α and β-[(2′-naphthylmethyl)oxy]dihydroartemisinin [Example 13] | 0.14 | 0.037 | 0.12 | 0.02 | strong DNA damage | – | – | – | – | – | – | – | –
10α and β-[(2′-naphthylmethyl)oxy]dihydroartemisinin [Example 13α] | – | – | – | – | – | 0.14 | 0.037 | 0.12 | 0.02 | 200 | 500 | 300 | –
CC1CCC2[C@@H](C)C(O)OC3O[C@]4(C)CCC1C32OO4 (stereo partly drawn) [Dihydroartemisinin, dihydroartemisinin, reference compound] | 1.64 | 0.86 | 2.22 | 0.24 | – | 1.64 | 0.86 | 2.22 | 0.24 | – | – | – | does not bind to DNA
CC1CCC2C(C)C(c3ccccc3)OC3OC4(C)CCC1C32OO4 (stereo not drawn) [Example 2, 10β-(phenyl)dihydroartemisinin] | 0.61 | 0.475 | 3.05 | 0.54 | – | 0.61 | 0.475 | 3.05 | 0.54 | 300 | 800 | 500 | –
COc1ccc(C2OC3OC4(C)CCC5C(C)CCC(C2C)C35OO4)c(OC)c1 (stereo not drawn) [Example 4, 10-(2′,4′-dimethoxyphenyl)dihydroartemisinin] | 1.37 | 0.29 | 1.09 | 0.13 | strong DNA damage | 1.37 | 0.29 | 1.09 | 0.13 | – | – | – | –
CC1CCC2C(C)C(OCC(F)(F)F)OC3OC4(C)CCC1C32OO4 (stereo not drawn) [Example 11, 10β-[(2′,2′,2′-trifluoroethyl)oxy]-dihydroartemisinin] | 1.56 | 0.87 | 3.31 | 0.39 | – | 1.56 | 0.87 | 3.31 | 0.39 | 500 | 1500 | 500 | –
C[C@@H]1CC[C@H]2[C@@H](C)C(=O)N(Cc3ccccc3F)[C@@H]3O[C@@]4(C)CC[C@@H]1[C@@]23OO4 [Example 15, 11-aza-N-(2-fluorobenzyl)artemisinin] | 22.70 | >50.00 | >50.00 | 1.69 | – | >50 | >50 | 22.7 | 1.69 | 200 | 1500 | 300 | –
CC1CCC2C(CN3CCc4ccccc43)C(=O)OC3OC4(C)CCC1C32OO4 (stereo not drawn) [Example 22, 16-(N-1′-indolinyl)artemisinin] | 24.77 | 29.24 | 11.38 | 7.45 | strong DNA damage | 25 | 29 | 12 | 7.5 | – | – | – | –
COc1ccccc1C1O[C@@H]2O[C@@]3(C)CC[C@H]4[C@H](C)CC[C@@H]([C@H]1C)[C@@]24OO3 (stereo partly drawn) [Example 29] | – | – | – | – | – | – | – | – | – | >10000 | >10000 | >10000 | –
C[C@@H]1CC[C@H]2[C@@H](C)C(Nc3ccccc3)O[C@@H]3O[C@@]4(C)CC[C@@H]1[C@]32OO4 (stereo partly drawn) [Example 30] | 0.31 | 0.26 | 0.24 | 0.26 | – | 0.31 | 0.26 | 0.24 | 0.26 | 100 | 600 | 400 | –
C[C@@H]1CC[C@H]2[C@@H](C)C(Nc3ccc(Br)cc3)O[C@@H]3O[C@@]4(C)CC[C@@H]1[C@]32OO4 (stereo partly drawn) [Example 33] | – | – | – | – | – | – | – | – | – | 60 | 500 | 200 | –
C[C@@H]1CC[C@H]2[C@@H](C)C(Nc3ccc(I)cc3)O[C@@H]3O[C@@]4(C)CC[C@@H]1[C@]32OO4 (stereo partly drawn) [Example 34] | – | – | – | – | – | – | – | – | – | 100 | 500 | 150 | –
C[C@@H]1CC[C@H]2[C@@H](C)C(NCc3ccccc3)O[C@@H]3O[C@@]4(C)CC[C@@H]1[C@]32OO4 (stereo partly drawn) [Example 36] | – | – | – | – | – | – | – | – | – | 60 | 400 | 50 | –
C[C@@H]1CC[C@H]2[C@@H](C)C(c3cc4ccccc4c4ccccc34)O[C@@H]3O[C@@]4(C)CC[C@@H]1[C@]32OO4 (stereo partly drawn) [Example 56] | – | – | – | – | – | 0.38 | 0.26 | 0.24 | 0.21 | 200 | 300 | 300 | –
COc1cc(OC)c(C2O[C@@H]3O[C@@]4(C)CC[C@H]5[C@H](C)CC[C@@H]([C@H]2C)[C@@]35OO4)c(OC)c1 (stereo partly drawn) [Example 59] | – | – | – | – | – | – | – | – | – | 1500 | 1500 | 1500 | –
Cc1cc(C)c(C2O[C@@H]3O[C@@]4(C)CC[C@H]5[C@H](C)CC[C@@H]([C@H]2C)[C@@]35OO4)c(C)c1 (stereo partly drawn) [Example 60] | – | – | – | – | – | – | – | – | – | 150 | 300 | 250 | –
Cc1cc(C)c(C2O[C@@H]3O[C@@]4(C)CC[C@H]5[C@H](C)CC[C@@H]([C@H]2C)[C@@]35OO4)cc1C (stereo partly drawn) [Example 61] | – | – | – | – | – | – | – | – | – | 150 | 300 | 250 | –
CC1CCC2C(C)C(OCc3cccc(F)c3)OC3OC4(C)CCC1C32OO4 (stereo not drawn) [Example 78] | – | – | – | – | – | – | – | – | – | 250 | 1500 | 200 | –
CC1CCC2C(C)C(OCc3ccc(F)cc3)OC3OC4(C)CCC1C32OO4 (stereo not drawn) [Example 79] | – | – | – | – | – | – | – | – | – | 200 | 1500 | 200 | –
